The values that follow come from patent US9408863B2, “5′-substituted nucleoside analogs and methods of use thereof for the treatment of viral diseases” (Merck Sharp & Dohme Corp., priority 2011, dated 2016).

Where two headings read alike, the source gives them in different places.

The test has as its system HCV replicon (1b) in replicon cells. Put plainly: Cell-based HCV replicon assay (replicon RNA level by real time PCR, Taqman). The conditions noted are these: Hepatitis C virus, 72 h, read-out: 1b EC50. As for the experimental part: To measure cell-based anti-HCV activity of selected compounds of the present invention, replicon cells were seeded at 5000 cells/well in 96-well collagen I-coated Nunc plates in the presence of the test compound. Various concentrations of test compound, typically in 10 serial 2-fold dilutions, were added to the assay mixture, with the starting concentration ranging from 250 μM to 1 μM. The final concentration of dimethylsulfoxide was 0.5%, fetal bovine serum was 5%, in the assay media. Cells were harvested on day 3 by the addition of 1× cell lysis buffer (Ambion cat #8721). The replicon RNA level was measured using real time PCR (Taqman assay). The amplicon was located in 5B. The PCR primers were: 5B.2F, ATGGACAGGCGCCCTGA (SEQ ID. NO. 1); 5B.2R, […] (SEQ ID. NO. 2); the probe sequence was FAM-labeled CACGCCATGCGCTGCGG (SEQ ID. NO. 3). GAPDH RNA was used as endogenous control and was amplified in the same reaction as NS5B (multiplex PCR) using primers and VIC-labeled probe recommended by the manufacturer (PE Applied Biosystem). The real-time RT-PCR reactions were run on ABI PRISM 7900HT Sequence Detection System using the following program: 48° C. for 30 minutes, 95° C. for 10 minutes, 40 cycles of 95° C. for 15 sec, 60° C. for 1 minute. The ACT values (CT5B-CTGAPDH) were plotted against the concentration of test compound and fitted to the sigmoid dose-response model using XLfit4 (MDL). EC50 was defined as the concentration of inhibitor necessary to achieve ΔCT=1 over the projected baseline; EC90 the concentration necessary to achieve ΔCT=3.2 over the baseline. Alternatively, to quantitate the absolute amount of replicon RNA, a standard curve was established by including serially diluted T7 transcripts of replicon RNA in the Taqman assay. All Taqman reagents were from PE Applied Biosystems. Such an assay procedure was described in detail in e.g. Malcolm et al., Antimicrobial Agents and Chemotherapy 50: 1013-1020 (2006).
(Replicon systems follow genome replication, usually without infectious particles.)

Setting [1] is: HCV 1b replicon cells, harvested on day 3, EC50 = concentration to achieve ΔCT=1 over projected baseline.

For the molecule `C[C@@H](O)[C@H]1O[C@@H](n2ccc(N)nc2=O)[C@](C)(O)[C@@H]1O` [Compound 1], the EC50 under setting [1] was above 100 µM.
For the molecule `CCCCOC(=O)[C@H](C)NP(=O)(Oc1cccc2ccccc12)O[C@H](C)[C@H]1O[C@@H](n2ccc(N)nc2=O)[C@](C)(O)[C@@H]1O` (stereo partly shown) [Compound 2], the EC50 came out at 10 µM.
For `C[C@@H](O)[C@H]1O[C@@H](n2ccc(=O)[nH]c2=O)[C@](C)(O)[C@@H]1O` [Compound 3], the EC50 under setting [1] is above 100 µM.
As to `CCCCOC(=O)[C@H](C)NP(=O)(Oc1cccc2ccccc12)O[C@H](C)[C@H]1O[C@@H](n2ccc(=O)[nH]c2=O)[C@](C)(O)[C@@H]1O` (stereo partly shown) [Compound 4], the EC50 was above 100 µM.
Regarding `C[C@H](O)[C@H]1O[C@@H](n2ccc(N)nc2=O)[C@](C)(O)[C@@H]1O` [Compound 5], under setting [1], the EC50 is above 100 µM.
Turning to `CCCCOC(=O)[C@H](C)NP(=O)(Oc1cccc2ccccc12)O[C@@H](C)[C@H]1O[C@@H](n2ccc(N)nc2=O)[C@](C)(O)[C@@H]1O` (stereo partly shown) [Compound 6], the EC50 is above 100 µM.
For `CC(O)[C@H]1O[C@@H](n2ccc(NC(=O)c3ccccc3)nc2=O)[C@](C)(F)[C@@H]1O` (stereo partly shown) [Compound 7], the EC50 under setting [1] is above 100 µM.
`CC(O)[C@H]1O[C@@H](n2ccc(N)nc2=O)[C@](C)(F)[C@@H]1O` (stereo partly shown) [Compound 8]: under setting [1], the EC50 was found to be 38 µM.
Turning to `C[C@@H](O)[C@H]1O[C@@H](n2cnc3c(=O)[nH]c(N)nc32)[C@](C)(O)[C@@H]1O` [Compound 9], the EC50 under setting [1] is above 100 µM.
In the case of `CCCCOC(=O)[C@H](C)NP(=O)(Oc1cccc2ccccc12)O[C@H](C)[C@H]1O[C@@H](n2cnc3c(=O)[nH]c(N)nc32)[C@](C)(O)[C@@H]1O` (stereo partly shown) [Compound 10], the EC50 is above 100 µM.
As for `C[C@H](O)[C@H]1O[C@@H](n2cnc3c(=O)[nH]c(N)nc32)[C@](C)(O)[C@@H]1O` [Compound 11], the EC50 under setting [1] was above 100 µM.
In the case of `CC(O)[C@H]1O[C@@H](n2cnc3c(OCc4ccccc4)nc(NC(=O)c4ccccc4)nc32)[C@](C)(F)[C@@H]1O` (stereo partly shown) [Compound 12], the EC50 under setting [1] came out at 14 µM.
In the case of `CC(O)[C@H]1O[C@@H](n2cnc3c(=O)[nH]c(N)nc32)[C@](C)(F)[C@@H]1O` (stereo partly shown) [Compound 13], the EC50 under setting [1] turned out to be 3.5 µM.

As a reminder, the EC50 is the midpoint of the concentration-response curve.
